Assay results from patent publication US20010044445A1, “AZOLE INHIBITORS OF CYTOKINE PRODUCTION” (priority 1999, published 2001).

Assays:
[1] = system: Human peripheral blood mononuclear cells; assay: Human Concanavalin-A Proliferation Assay (Con HU Assay); format: cell-based; settings: Homo sapiens, PBMC, concanavalin-A stimulated human PBMC; for inhibition at 1 µM / inhibition at 10 µM / inhibition at 100 µM: 72 h, 3 days, read-out: % Inhibition of proliferation (at concentrations of 1,10, or 100 μm); for inhibition at 1 µM: concentration 1 μm (in parentheses in the cell); for inhibition at 10 µM: concentration 10 μm (in parentheses in the cell); for IC50: tritiated thymidine; for inhibition at 100 µM: concentration 100 μm (in parentheses in the cell)
Summary of the method: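 Histopaque-isolated human PBMC (50,000/well) were pre-incubated 15 min with compounds, then stimulated with concanavalin-A at 2.5 μg/ml final for 3 days at 37 °C, 5% CO2. Proliferation measured by 6 h pulse with 0.5 μCi/well [3H]thymidine and beta counting.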

melting point [°C] | SMILES | inhibition at 1 µM [1] [%] | inhibition at 10 µM [1] [%] | IC50 [1] [µM] | inhibition at 100 µM [1] [%]
178 to 180 | COc1cc(Cl)ccc1C(=O)Nc1ccc(-n2nc(C(F)(F)F)cc2C(F)(F)F)cc1 [Example 176, N-[4-[3,5-Bis(trifluoromethyl)-1H-pyrazol-1-yl]phenyl]-4-chloro-2-methoxybenzamide] | 12 | – | – | –
122 to 123 | Cc1nnsc1C(=O)Nc1ccc(-n2nc(C(F)(F)F)cc2OC(F)F)cc1 [Example 323, N-(4-(5-(difluoromethoxy)-3-(trifluoromethyl)-1H-pyrazol-1-yl)phenyl)-4-methyl-1,2,3-thiadiazole-5-carboxamide] | – | – | 0.238 | –
185 to 188 | Cc1ccsc1C(=O)Nc1ccc(-n2nc(C(F)(F)F)cc2C(F)(F)F)cc1 [Example 162, N-[4-[3,5-bis(trifluoromethyl)-1H-pyrazol-1-yl]phenyl]-3-methyl-2-thiophenecarboxamide] | – | 100 | 0.044 | –
234 to 235 | O=C(Nc1ccncc1)c1ccc(-n2nc(C(F)(F)F)cc2C(F)(F)F)cc1 [Example 194, 4-[3,5-Bis(trifluoromethyl)-1H-pyrazol-1-yl]-N-(4-pyridinyl)benzamide] | 23 | – | – | –
158 to 160 | CCC(NC(=O)OCc1ccccc1)C(=O)Nc1ccc(-n2nc(C(F)(F)F)cc2C(F)(F)F)cc1 (centres unmarked) [Example 28, phenylmethyl [1-[[[4-[3,5-bis(trifluoromethyl)-1H-pyrazol-1-yl]phenyl]amino]carbonyl]propyl]carbamate] | 12 | – | – | –
142 to 144 | O=C(Nc1ccc(-n2nc(C(F)(F)F)cc2C(F)(F)F)cc1)c1cccc(Cl)c1 [Example 130, N-[4-[3,5-bis(trifluoromethyl)-1H-pyrazol-1-yl]phenyl]-3-chlorobenzamide] | – | – | 0.336 | 100
213 to 215 | O=C(Nc1ccc(-n2nc(C(F)(F)F)cc2C(F)(F)F)cc1)c1cc2ccccc2o1 [Example 19, N-[4-[3,5-bis(trifluoromethyl)-1H-pyrazol-1-yl]phenyl]-2-benzofurancarboxamide] | 9 | – | – | –
149 to 150 | O=C(Nc1ccc(-n2nc(C(F)(F)F)cc2OC(F)F)cc1)c1cccnc1F [Example 324, N-(4-(5-(difluoromethoxy)-3-(trifluoromethyl)-1H-pyrazol-1-yl)phenyl)-2-fluoronicotinamide] | – | – | 0.089 | –
186 to 187 | O=C(Nc1ccc(-n2nc(C(F)(F)F)cc2C(F)(F)F)cc1)c1ccc(F)c([N+](=O)[O-])c1 [Example 200, N-[4-[3,5-bis(trifluoromethyl)-1H-pyrazol-1-yl]phenyl]-4-fluoro-3-nitrobenzamide] | 26 | – | – | –
214 to 216 | Cn1ncc(C(=O)Nc2ccc(-n3nc(C(F)(F)F)cc3C(F)(F)F)cc2)c1[N+](=O)[O-] [Example 83, N-[4-[3,5-bis(trifluoromethyl)-1H-pyrazol-1-yl]phenyl]-1-methyl-5-nitro-1H-pyrazole-4-carboxamide] | – | 99 | 0.071 | –
167 to 168 | CSc1cc(C(F)(F)F)nn1-c1ccc(NC(=O)c2cccnc2F)cc1 [Example 316, 2-fluoro-N-(4-(5-(methylsulfanyl)-3-(trifluoromethyl)-1H-pyrazol-1-yl)phenyl)nicotinamide] | – | – | 0.041 | –
216 to 218 | CS(=O)(=O)c1ccc(C(=O)Nc2ccc(-n3nc(C(F)(F)F)cc3C(F)(F)F)cc2)cc1 [Example 109, N-[4-[3,5-bis(trifluoromethyl)-1H-pyrazol-1-yl]phenyl]-4-(methylsulfonyl)benzamide] | 45 | – | – | –

More lines, now with the values behind:

SMILES | melting point [°C] | inhibition at 1 µM [1] [%] | inhibition at 10 µM [1] [%] | IC50 [1] [µM] | inhibition at 100 µM [1] [%]
O=C(Nc1ccc(-n2nc(C(F)(F)F)cc2C(F)(F)F)cc1)c1ccccc1I [Example 110, N-[4-[3,5-bis(trifluoromethyl)-1H-pyrazol-1-yl]phenyl]-2-iodobenzamide] | 180 to 182 | – | 99 | 0.314 | –
O=C(Nc1ccc(-n2nc(C(F)(F)F)cc2C(F)(F)F)cc1)C1CCOC1 (centres unmarked) [Example 243, N-[4-[3,5-bis(trifluoromethyl)-1H-pyrazol-1-yl]phenyl]tetrahydro-3-furancarboxamide] | 193 to 194 | – | 99 | 0.39 | –
O=C(Nc1ccc(-n2nc(C(F)(F)F)cc2C(F)(F)F)cc1)C1CC=CCC1 (centres unmarked) [Example 29, N-[4-[3,5-bis(trifluoromethyl)-1H-pyrazol-1-yl]phenyl]-3-cyclohexene-1-carboxamide] | 177 to 178 | – | 100 | 0.051 | –
N#Cc1cc(C(F)(F)F)nn1-c1ccc(NC(=O)c2ccccc2Cl)cc1 [Example 350, 2-chloro-N-(4-(5-cyano-3-(trifluoromethyl)-1H-pyrazol-1-yl)phenyl)benzamide] | 162 to 163 | – | – | 0.24 | –
O=C(Nc1ccc(-n2nc(C(F)(F)F)cc2C(F)(F)F)cc1)c1c(F)cccc1Cl [Example 212, N-[4-[3,5-bis(trifluoromethyl)-1H-pyrazol-1-yl]phenyl]-2-chloro-6-fluorobenzamide] | 165 to 167 | – | 99 | 0.07 | –
O=C(Nc1ccc(-n2nc(C(F)(F)F)cc2C(F)(F)F)cc1)c1ccncc1 [Example 116, N-[4-[3,5-bis(trifluoromethyl)-1H-pyrazol-1-yl]phenyl]-4-pyridinecarboxamide] | 156 to 157 | – | 100 | 0.154 | –
O=C(Nc1ccc(-n2nc(C(F)(F)F)cc2C(F)(F)F)nc1)c1ccccc1Cl [Example 260, N-[2-[3,5-bis(trifluoromethyl)-1H-pyrazol-1-yl]-5-pyridinyl]-2-chlorobenzamide] | 156 to 159 | – | 96 | 0.369 | –
COc1cc(C(F)(F)F)nn1-c1ccc(NC(=O)c2ccncc2F)cc1 [Example 321, 3-fluoro-N-(4-(5-methoxy-3-(trifluoromethyl)-1H-pyrazol-1-yl)phenyl)isonicotinamide] | 160 to 161 | – | – | 0.185 | –
O=C(Nc1ccc(-n2nc(C(F)(F)F)cc2C(F)(F)F)cc1)c1ccc(F)c(F)c1 [Example 218, N-[4-[3,5-bis(trifluoromethyl)-1H-pyrazol-1-yl]phenyl]-3,4-difluorobenzamide] | 183 to 185 | – | 100 | 0.136 | –
CS(=O)(=O)c1cccc(C(=O)Nc2ccc(-n3nc(C(F)(F)F)cc3C(F)(F)F)cc2)c1 [Example 126, N-[4-[3,5-bis(trifluoromethyl)-1H-pyrazol-1-yl]phenyl]-3-(methylsulfonyl)benzamide] | 194 to 195 | – | 79 | 4.91 | –
O=C(Nc1ccccc1Cl)c1ccc(-n2nc(C(F)(F)F)cc2C(F)(F)F)cc1 [Example 185, 4-[3,5-Bis(trifluoromethyl)-1H-pyrazol-1-yl]-N-(2-chlorophenyl)benzamide] | 162 to 164 | 26 | – | – | –
O=C(Nc1ccc(-n2nc(C(F)(F)F)cc2C(F)(F)F)cc1)c1c(F)cc(F)cc1F [Example 229, N-[4-[3,5-bis(trifluoromethyl)-1H-pyrazol-1-yl]phenyl]-2,4,6-trifluorobenzamide] | 183 to 185 | – | 99 | 0.04 | –
O=C(Nc1ccc(-n2nc(C(F)(F)F)cc2C(F)(F)F)cc1)c1ccc([N+](=O)[O-])o1 [Example 247, N-[4-[3,5-bis(trifluoromethyl)-1H-pyrazol-1-yl]phenyl]-5-nitro-2-furancarboxamide] | 198 to 199 | – | 97 | 0.375 | –
COC(=O)c1cccc(C(=O)Nc2ccc(-n3nc(C(F)(F)F)cc3C(F)(F)F)cc2)c1 [Example 129, Methyl 3-[[[4-[3,5-bis(trifluoromethyl)-1H-pyrazol-1-yl]phenyl]amino]carbonyl]benzoate] | 174 to 175 | – | – | 0.38 | 100
COC(C(=O)Nc1ccc(-n2nc(C(F)(F)F)cc2C(F)(F)F)cc1)(c1ccccc1)C(F)(F)F (stereo not drawn) [Example 55, N-[4-[3,5-bis(trifluoromethyl)-1H-pyrazol-1-yl]phenyl]-α-methoxy-α-(trifluoromethyl)benzeneacetamide] | 127 to 129 | 13 | – | – | –
COc1ccc(C(=O)Nc2ccc(-n3nc(C(F)(F)F)cc3C(F)(F)F)cc2)cc1 [Example 71, N-[4-[3,5-bis(trifluoromethyl)-1H-pyrazol-1-yl]phenyl]-4-methoxybenzamide] | 205 to 207 | – | 87 | 0.544 | –
COc1ccc(C(=O)Nc2ccc(-n3nc(C(F)(F)F)cc3C(F)(F)F)cc2)cc1Br [Example 221, N-[4-[3,5-bis(trifluoromethyl)-1H-pyrazol-1-yl]phenyl]-3-bromo-4-methoxybenzamide] | 197 to 198 | – | 98 | 0.411 | –
Cn1cccc1C(=O)Nc1ccc(-n2nc(C(F)(F)F)cc2C(F)(F)F)cc1 [Example 248, N-[4-[3,5-bis(trifluoromethyl)-1H-pyrazol-1-yl]phenyl]-1-methyl-1H-pyrrole-2-carboxamide] | 148 to 149 | – | 100 | 0.143 | –
